Measurements as given in patent US10357556B2, “Methods and compositions for T cell generation and uses thereof” (priority 2016, dated 2019).

Tests used:
[1] = tested on: CD4+Foxp3+ regulatory T cells (Tregs); experiment: In vitro DC-T cell co-culture: pulsed BMDCs co-cultured with CD4+ T cells; assay type: cell-based, mouse
Procedure: Co-culture of bone marrow-derived dendritic cells (BMDCs) and CD4^+ T cells were performed as previously described (30, 32, 36). Briefly, BMDCs were generated from bone marrow progenitor cells isolated from femurs of WT or Atg16L1^ΔCD11c mice in the presence of 20 ng/ml GM-CSF (Miltenyi) in complete RPMI media 1640 (10% fetal bovine serum, 50 U/ml penicillin, 50 μg/ml streptomycin, 2 mM L-glutamine, 1 mM sodium pyruvate, 1 mM HEPES, and non-essential amino acids, and β-mercaptoethanol). BMDCs were pulsed with PBS, WT-OMVs (10 μg/ml), ΔPSA-OMVs (10 μg/ml) or pure PSA (50 μg/ml) for 18-22 hrs; OMVs with a protein content of 10 μg contain 50 μg of PSA. […]
(§1) Cells were incubated in 5% mouse serum for 15 min and stained for 20 min at 4° C. with either LIVE/DEAD fixable green or far red dead stain kit (Life Technologies), with empirically titrated concentrations of the following antibodies: PerCP-Cy5.5-conjugated anti-mouse CD4 (clone: RM4-5), PerCP-Cy5.5-conjugated anti-human CD4 (clone: OKT4), and/or PE-Cy7-conjugated anti-mouse CD4 (clone: RM4-5). […] Cell acquisition was performed on a BD FACS Calibur (BD Biosciences) or Miltenyi MACSQuant (Miltenyi), and data was analyzed using FlowJo software suite (TreeStar). For ELISAs, cell supernatant from in vitro DC-T cell co-culture were collected and mouse IL-10 and IL-17A were measured using commercially available kits (eBiosciences).

[2] = tested on: CD4+CD25- responder effector T cells (Teff); experiment: In vitro T cell suppression assay; assay type: cell-based, mouse; settings: Tregs from co-cultures with Atg16L1ΔCD11c BMDCs
Procedure: CD4^+CD25^+ Treg cells were purified from in vitro BMDC-T cell co-cultures using magnetic microbeads (Miltenyi). CD4^+CD25^− responder effector T cells (Teff) were isolated from mouse spleens, labeled with 2.5 μM CFSE for 10 min at 37° C. in the dark, washed, and incubated with Treg cells at various Treg:Teff ratios in the presence of 1 μg/ml anti-mouse CD3 (eBiosciences). Irradiated CD4-depleted mouse splenocytes served as antigen-presenting cells. Cultures were incubated for 48 and 72 hrs, cells were stained with specific antibodies and a viability dye, and analyzed by flow cytometry. Dilution of CFSE signal is a measure of proliferation, and inhibition of proliferation a measure of Treg activity.

[3] = tested on: LC3-associated phagocytosis (LAP); experiment: LC3-GFP accumulation in BMDCs (LAP activation); assay type: cell-based, mouse; settings: Rubicon+/- BMDCs
Procedure: Quantification of LC3-GFP accumulation upon 2 h treatment of BMDCs with PBS, B. fragilis WT-OMV, ΔPSA-OMV or purified PSA in Rubicon^+/− or Rubicon^−/− DCs. Error bars represent S.E.M. **** p<0.0001. Data are representative of 3 independent experiments.

CD4+Foxp3+ Tregs = experiment: Human MoDC - syngeneic CD4+ T cell co-culture; assay type: cell-based; settings: cells from most subjects, regardless of genotype
Procedure: To generate monocyte-derived dendritic cell (MoDCs), human PBMCs were isolated from fresh whole blood the same day of harvest using Ficoll-Hypaque (GE Healthcare) gradient (density=1.070 g/ml), followed by monocyte enrichment using the Human Monocyte Isolation Kit II (Miltenyi). For differentiation into MoDCs, monocytes were incubated with recombinant human IL-4 and GM-CSF (Peprotech) every two days in complete RPMI 1640 (5% human AB serum, 50 U/ml penicillin, 50 μg/ml streptomycin, 2 mM L-glutamine, 1 mM sodium pyruvate, 1 mM HEPES, non-essential amino acids, […]). […]
as §1

## Polysaccharide A [PSA]
[1]; ATG16L1-deficient (Atg16L1ΔCD11c) DCs
  IL-10 production: does not require ATG16L1 for its activity
[1]; WT or Atg16L1ΔCD11c DCs
  IL-10 production among CD4+Foxp3- type 1 regulatory T cells: Neither WT-OMVs nor pure PSA have any effect
[2]
  Treg suppressive activity: does not require ATG16L1 to promote suppressive Treg activity
[3]
  Accumulation of membrane-bound LC3-GFP (LC3-II) / LAP activation: neither APSA-OMVs nor purified PSA are able to activate LAP
CD4+Foxp3+ Tregs
  Response (IL-10 among CD4+Foxp3+ Tregs): respond to purified PSA
